31 substances from US8372967B2, “Compounds and methods for modulating expression of GCCR” (Isis Pharmaceuticals, Inc., priority 2006, dated 2013) can be followed below.

The data set concerns PCSK9 mRNA. The format is cell-based, human. The settings on record: Hep3B cells, 100 nM, relative to untreated control cells; for % Inhib: 0 = no reduction observed. The method, then:
When cells reached appropriate confluency, they were treated with oligonucleotide using LIPOFECTIN® as described. […] Cells were treated and data were obtained in duplicate or triplicate. […] Cells were harvested 16-24 hours after oligonucleotide treatment.
Prior to quantitative PCR analysis, primer-probe sets specific to the target gene being measured were evaluated for their ability to be “multiplexed” with a GAPDH amplification reaction. After isolation the RNA is subjected to sequential reverse transcriptase (RT) reaction and real-time PCR, both of which are performed in the same well. RT and PCR reagents were obtained from Invitrogen Life Technologies (Carlsbad, Calif.). […] The RT reaction was carried out by incubation for 30 minutes at 48° C. Following a 10 minute incubation at 95° C. to activate the PLATIN 9M® Taq, 40 cycles of a two-step PCR protocol were carried out: 95° C. for 15 seconds (denaturation) followed by 60° C. for 1.5 minutes (annealing/extension).
170 μL of RiboGreen® working reagent (RiboGreen® reagent diluted 1:350 in 10 mM Tris-HCl, 1 mM EDTA, pH 7.5) was pipetted into a 96-well plate containing 30 μL purified cellular RNA. The plate was read in a CytoFluor® 4000 (PE Applied Biosystems) with excitation at 485 nm and emission at 530 nm.
Short antisense compounds targeted to a PCSK9 nucleic acid were tested for their effects on PCSK9 mRNA in vitro. The Isis No, gapmer motif and SEQ ID NO of each short antisense compound are shown again in Table 75. Cultured Hep3B cells were treated with 100 nM of short antisense compound. 5-10-5 MOE gapmers targeted to a PCSK9 nucleic acid were used as positive controls. After the treatment period, RNA was isolated from the cells and PCSK9 mRNA levels were measured by quantitative real-time PCR, as described herein. PCSK9 mRNA levels were adjusted according to total RNA content as measured by RIBOGREEN®. Results are presented in Table 75 as percent inhibition of PCSK9 (% Inhib), relative to untreated control cells.

Strand notation (5' to 3'): a small letter for the sugar, then the base; units joined by * are phosphorothioate-linked, units joined directly phosphodiester-linked; [ ] holds rarer units or linkages, { } end groups; capitals alone tell only the bases. e = 2'-O-(2-methoxyethyl) (MOE); [5mC] = 5-methylcytosine; d = 2'-deoxy (DNA)

“400339 (antisense eT*eG*dG*dT*d[5mC]*d[5mC]*dT*d[5mC]*dA*dG*dG*dG*eA*eA) [compound 400339]”: the “% Inhib” value came out at 0%. Same read-out and setting: with “400340 (antisense e[5mC]*eT*dG*dG*dT*d[5mC]*d[5mC]*dT*d[5mC]*dA*dG*dG*eG*eA) [compound 400340]” the figure was 0%; with “400341 (antisense eG*e[5mC]*dT*dG*dG*dT*d[5mC]*d[5mC]*dT*d[5mC]*dA*dG*eG*eG) [compound 400341]”, 0%.

For the substance “400342 (antisense eG*eT*dG*d[5mC]*dT*dG*dG*dG*dG*dG*dG*d[5mC]*eA*eG) [compound 400342]”, the “% Inhib” value came out at 0%. Take “400343 (antisense eG*eG*dT*dG*d[5mC]*dT*dG*dG*dG*dG*dG*dG*e[5mC]*eA) [compound 400343]”: the “% Inhib” value is reported as 0%. As to “400344 (antisense eG*eG*dG*dT*dG*d[5mC]*dT*dG*dG*dG*dG*dG*eG*e[5mC]) [compound 400344]”, the “% Inhib” value is on record as 0%. Still for that read-out and setting: with “400345 (antisense eT*eG*dG*dG*dT*dG*d[5mC]*dT*dG*dG*dG*dG*eG*eG) [compound 400345]” the figure was 0%; with “400346 (antisense eG*eA*dG*d[5mC]*dA*dG*d[5mC]*dT*d[5mC]*dA*dG*d[5mC]*eA*eG) [compound 400346]”, 5%.

Regarding “400347 (antisense eG*eG*dA*dG*d[5mC]*dA*dG*d[5mC]*dT*d[5mC]*dA*dG*e[5mC]*eA) [compound 400347]”, the “% Inhib” value is listed as 0%.

For “400348 (antisense eT*eG*dG*dA*dG*d[5mC]*dA*dG*d[5mC]*dT*d[5mC]*dA*eG*e[5mC]) [compound 400348]”, the “% Inhib” value came out at 0%. As for “400349 (antisense e[5mC]*eT*dG*dG*dA*dG*d[5mC]*dA*dG*d[5mC]*dT*d[5mC]*eA*eG) [compound 400349]”, the “% Inhibition Range” value is 10-20% and the “% Inhib” value came to 13%.

Regarding “400350 (antisense e[5mC]*e[5mC]*d[5mC]*dT*d[5mC]*dA*d[5mC]*d[5mC]*d[5mC]*d[5mC]*d[5mC]*dA*eA*eA) [compound 400350]”, the “% Inhibition Range” value is given as 10-20% and the “% Inhib” value is 15%. For “400351 (antisense eA*e[5mC]*d[5mC]*d[5mC]*dT*d[5mC]*dA*d[5mC]*d[5mC]*d[5mC]*d[5mC]*d[5mC]*eA*eA) [compound 400351]”, in that order: 10-20% and 14%. In the case of “400354 (antisense eG*eA*d[5mC]*dA*d[5mC]*d[5mC]*d[5mC]*dT*d[5mC]*dA*d[5mC]*d[5mC]*e[5mC]*e[5mC]) [compound 400354]”, the “% Inhibition Range” value was 10-20% and the “% Inhib” value was found to be 19%. Turning to “400355 (antisense eA*eG*dA*d[5mC]*dA*d[5mC]*d[5mC]*d[5mC]*dT*d[5mC]*dA*d[5mC]*e[5mC]*e[5mC]) [compound 400355]”, the “% Inhib” value was determined as 0%. For the substance “400356 (antisense eT*eA*dG*dA*d[5mC]*dA*d[5mC]*d[5mC]*d[5mC]*dT*d[5mC]*dA*e[5mC]*e[5mC]) [compound 400356]”, the “% Inhib” value amounted to 0%. Same read-out and setting: with “400357 (antisense eT*eG*dG*d[5mC]*dA*dG*d[5mC]*dA*dG*dG*dA*dA*eG*e[5mC]) [compound 400357]” the figure was 0%. For the substance “400358 (antisense eA*eT*dG*dG*d[5mC]*dA*dG*d[5mC]*dA*dG*dG*dA*eA*eG) [compound 400358]”, the “% Inhibition Range” value is given as 10-20% and the “% Inhib” value was 12%. Take “400359 (antisense e[5mC]*eA*dT*dG*dG*d[5mC]*dA*dG*d[5mC]*dA*dG*dG*eA*eA) [compound 400359]”: the “% Inhib” value stood at 0%. With “400360 (antisense eG*e[5mC]*dA*dT*dG*dG*d[5mC]*dA*dG*d[5mC]*dA*dG*eG*eA) [compound 400360]”, the “% Inhibition Range” value is reported as 30-40% and the “% Inhib” value was 38%. For “400361 (antisense eG*eG*d[5mC]*dA*dG*d[5mC]*dA*dG*dA*dT*dG*dG*e[5mC]*eA) [compound 400361]”, the “% Inhib” value amounted to 2%. With “400362 (antisense e[5mC]*eG*dG*d[5mC]*dA*dG*d[5mC]*dA*dG*dA*dT*dG*eG*e[5mC]) [compound 400362]”, the “% Inhibition Range” value is listed as 10-20% and the “% Inhib” value was determined as 16%. Take “400363 (antisense e[5mC]*e[5mC]*dG*dG*d[5mC]*dA*dG*d[5mC]*dA*dG*dA*dT*eG*eG) [compound 400363]”: the “% Inhib” value worked out at 8%. “400364 (antisense eT*e[5mC]*d[5mC]*dG*dG*d[5mC]*dA*dG*d[5mC]*dA*dG*dA*eT*eG) [compound 400364]”: the “% Inhib” value came out at 0%. “400365 (antisense e[5mC]*eT*d[5mC]*d[5mC]*dG*dG*d[5mC]*dA*dG*d[5mC]*dA*dG*eA*eT) [compound 400365]”: the “% Inhibition Range” value is 20-30% and the “% Inhib” value is on record as 25%. For “400366 (antisense eG*e[5mC]*dT*d[5mC]*d[5mC]*dG*dG*d[5mC]*dA*dG*d[5mC]*dA*eG*eA) [compound 400366]”, the “% Inhibition Range” value is listed as 10-20% and the “% Inhib” value stood at 15%.

For “400367 (antisense eG*eG*d[5mC]*dT*d[5mC]*d[5mC]*dG*dG*d[5mC]*dA*dG*d[5mC]*eA*eG) [compound 400367]”, the “% Inhibition Range” value is on record as 10-20% and the “% Inhib” value is on record as 12%. Taken in the same sequence, the figures for “400368 (antisense e[5mC]*eG*dG*d[5mC]*dT*d[5mC]*d[5mC]*dG*dG*d[5mC]*dA*dG*e[5mC]*eA) [compound 400368]” were 10-20% and 11%. As to “400369 (antisense e[5mC]*e[5mC]*dG*dG*d[5mC]*dT*d[5mC]*d[5mC]*dG*dG*d[5mC]*dA*eG*e[5mC]) [compound 400369]”, the “% Inhib” value was found to be 0%.

Regarding “400370 (antisense eG*e[5mC]*d[5mC]*dG*dG*d[5mC]*dT*d[5mC]*d[5mC]*dG*dG*d[5mC]*eA*eG) [compound 400370]”, the “% Inhibition Range” value is reported as 10-20% and the “% Inhib” value was 13%.

With “400371 (antisense eA*eG*dT*dT*dA*d[5mC]*dA*dA*dA*dA*dG*d[5mC]*eA*eA) [compound 400371]”, the “% Inhib” value turned out to be 0%.
